13 compounds from patent US10287305B2, “Substituted piperidine compound and use thereof” (Takeda Pharmaceutical Company Limited, priority 2016, dated 2019) can be followed below.

Test [1] has as its target human OX2 receptor (Homo sapiens (Human), UniProt O43614). The experiment in a line: Measurement of orexin type 2 receptor agonist activity (Experimental Example 2-2, FDSS uCELL, calcium indicator). The format is cell-based. The settings on record: CHO cells expressing human OX2 receptor; for EC50: Fluo-4 AM; for Emax: CHO. As for the experimental part:
CHO cells forcibly expressing human OX2 receptor were seeded in each well of 384 well black transparent bottom plate (BD Falcon) at 7,500 cells/well, and cultured for one day in a 5% CO2 incubator at 37° C. […] The plate was stood for 30 min in a 5% CO2 incubator at 37° C., and further stood at room temperature for 30 min. A test compound prepared by diluting with assay buffer B (HESS, 20 mM HEPES, 0.1% BSA) was added at 10 μL/well, and the fluorescence value was measured by FDSSμCELL (Hamamatsu Photonics K.K.) every one sec for 1 min, and thereafter every two sec for 1 min sec.

Test [2] has as its target human orexin type 2 receptor (hOX2R) (Homo sapiens (Human), UniProt O43614). The experiment in a line: Measurement of orexin type 2 receptor agonist activity (Experimental Example 2-1, FLIPR TETRA, intracellular Ca2+). The settings on record: CHO dhfr- cells expressing hOX2R; for Emax at 30 µM: value at 30 uM concentration, orexin B as full agonist = 100%. It counts as cell-based.

Test [3] relates to C57BL/6J mice. The experiment in a line: Measurement of locomotor activity in mice (Experimental Example 3). The note with it: male C57BL/6J mice; 30 mg/kg intraperitoneal; measured for 2 hr after administration. It counts as in vivo, mouse. Here is the method: Increased locomotor activity is one of the indexes of arousal action together with increase in wakefulness time, increase in body temperature, enhancement of cardiovascular system parameters and the like. In this Experimental Example, the arousal action effective for the treatment of narcolepsy was evaluated by measuring the locomotor activity of mouse. Male C57BL/6J mice (6-10 weeks old, Japan CLEA) were used for the measurement of locomotor activity (8 mice each group), infrared rays were irradiated from the top part of the cage, and a locomotor activity measuring device (MDC system—Neurosciences Idea) capable of quantifying the number of times the mice pass through the irradiated rays was used. To be specific, the mice were placed in the cage of the device and acclimatized for 4 hours or longer, and a test compound was intraperitoneally administered (dose: 30 mg/kg body weight). The locomotor activity was measured for 2 hr after the administration. In the test compound group, a solution obtained by dissolving the test compound in a solvent (composition: 10% DMSO, 10% Cremophor EL (trade name), 20% polyethylene glycol 400 (20% PEG400, 60% H2O)) was administered to mice. On the other hand, in the control group, only the aforementioned solvent not containing the test compound was administered to mice.

Setting [4] is: DMSO = 0%, reference OX-A at 10 nM.
Setting [5] is: agonist activity, 10 nM human orexin B = 100%.

Sequence of human OX2 receptor (O43614 whole entry): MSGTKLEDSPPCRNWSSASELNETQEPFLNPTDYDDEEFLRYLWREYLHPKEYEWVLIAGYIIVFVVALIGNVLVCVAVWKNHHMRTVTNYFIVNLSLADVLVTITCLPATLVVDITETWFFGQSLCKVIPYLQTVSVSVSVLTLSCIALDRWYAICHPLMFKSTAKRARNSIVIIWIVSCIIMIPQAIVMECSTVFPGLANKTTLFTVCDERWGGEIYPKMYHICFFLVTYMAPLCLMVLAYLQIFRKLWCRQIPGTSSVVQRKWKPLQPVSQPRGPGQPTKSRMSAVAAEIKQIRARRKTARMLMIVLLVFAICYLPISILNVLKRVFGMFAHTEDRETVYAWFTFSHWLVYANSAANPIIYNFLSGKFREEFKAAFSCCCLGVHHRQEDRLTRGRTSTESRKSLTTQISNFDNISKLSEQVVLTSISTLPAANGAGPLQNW
Sequence of human orexin type 2 receptor (hOX2R) (O43614 whole entry): as above

For orientation: EC50 means the midpoint of the concentration-response curve. For orientation: Emax means the greatest response seen or fitted, relative to the assay's reference. Turning to `O=S(=O)(N[C@H]1CCCN[C@H]1CO[C@H]1CC[C@@H](c2ccccc2)CC1)C1CC1` (relative stereo) [Example 353, N-(cis-2-(((cis-4-phenylcyclohexyl)oxy)methyl)-piperidin-3-yl)cyclopropanesulfonamide], in test [1], the concentration giving a half-maximal response (EC50) came out at 1300 nM. Also, in test [1] (setting [4]), the maximum response (Emax) was determined as 100%.
For `CC(=O)N1CCC[C@H](NS(=O)(=O)C2CC2)[C@@H]1CO[C@H]1CC[C@@H](c2ccccc2)CC1` (relative stereo) [Example 354, N-(cis-1-acetyl-2-(((cis-4-phenylcyclohexyl)oxy)methyl)-piperidin-3-yl)cyclopropanesulfonamide], in that order: 51 nM and 104%.
For `CCNC(=O)N1CCC[C@H](NS(=O)(=O)C2CC2)[C@@H]1CO[C@H]1CC[C@@H](c2ccccc2)CC1` (relative stereo) [Example 355, cis-3-((cyclopropylsulfonyl)amino)-N-ethyl-2-(((cis-4-phenylcyclohexyl)oxy)methyl)-piperidine-1-carboxamide], in that order: 0.44 nM and 108%.
On to `CC(C)OC(=O)N1CCC[C@H](NS(=O)(=O)C2CC2)[C@@H]1COC1CCN(c2ncccn2)CC1` (relative stereo) [Example 356, isopropyl cis-3-((cyclopropylsulfonyl)amino)-2-(((1-(pyrimidin-2-yl)piperidin-4-yl)oxy)methyl)piperidine-1-carboxylate], for which, in test [1], the EC50 came to 21 nM. Moreover, the maximal effect (Emax) in test [1] (setting [4]) amounted to 98%.
Take `CC(=O)N1CCC[C@H](NS(=O)(=O)C2CC2)[C@@H]1CO[C@H]1CC[C@@H](C(C)C)CC1` (relative stereo) [Example 357, N-(cis-1-acetyl-2-(((cis-4-isopropylcyclohexyl)oxy)methyl)-piperidin-3-yl)cyclopropanesulfonamide]: the half-maximal effective concentration (EC50) in test [1] came to 84 nM. For the same compound, the Emax in test [1] (setting [4]) amounted to 101%.
As for `CNC(=O)N1CCC[C@H](NS(=O)(=O)C2CC2)[C@@H]1CO[C@H]1CC[C@@H](c2ccccc2)CC1` (relative stereo) [Example 359, cis-3-((cyclopropylsulfonyl)amino)-N-methyl-2-(((cis-4-phenylcyclohexyl)oxy)methyl)-piperidine-1-carboxamide], in test [1], the half-maximal effective concentration (EC50) was 1.1 nM. Further, in test [1] (setting [4]), the Emax worked out at 97%.
For `O=C(OCC(F)(F)F)N1CCC[C@H](NS(=O)(=O)C2CC2)[C@@H]1COC1CCN(c2ncccn2)CC1` (relative stereo) [Example 360, 2,2,2-trifluoroethyl cis-3-((cyclopropylsulfonyl)amino)-2-(((1-(pyrimidin-2-yl)piperidin-4-yl)oxy)methyl)piperidine-1-carboxylate], in that order: 210 nM and 98%.
With `CC(OC(=O)N1CCC[C@H](NS(=O)(=O)C2CC2)[C@@H]1COC1CCN(c2ncccn2)CC1)C(F)(F)F` (relative stereo) [Example 362, 1,1,1-trifluoropropan-2-yl cis-3-((cyclopropylsulfonyl)amino)-2-(((1-(pyrimidin-2-yl)piperidin-4-yl)oxy)methyl)piperidine-1-carboxylate], in test [1], the EC50 turned out to be 390 nM. Besides, the Emax in test [1] (setting [4]) came out at 95%.
The compound `CCNC(=O)N1CCC[C@H](NS(C)(=O)=O)[C@@H]1CO[C@H]1CC[C@@H](C(C)C)CC1` [Example 2, (2R,3S)—N-ethyl-2-(((cis-4-isopropylcyclohexyl)oxy)methyl)-3-((methylsulfonyl)amino)piperidine-1-carboxamide] showed a concentration giving a half-maximal response (EC50) in test [2] (setting [5]) of 1.9 nM. Also, in test [2], the Emax at 30 µM was found to be 99%. Moreover, the “locomotor activity (counts) (mean ± S.E.M., n = 8)” value in test [3] stood at 817.00 counts.
For `COC(=O)N1CCC[C@H](NS(C)(=O)=O)[C@@H]1CO[C@H]1CC[C@@H](c2ccccc2)CC1` [Example 5, Methyl (2R,3S)-3-((methylsulfonyl)amino)-2-(((cis-4-phenylcyclohexyl)oxy)methyl)piperidine-1-carboxylate], in that order: 2.2 nM, 98% and 1175.25 counts.
In test [2] (FLIPR TETRA, Fluo-4AM), `CS(=O)(=O)N[C@H]1CCCN(C(=O)CO)[C@H]1CO[C@H]1CC[C@@H](c2c(F)ccc(F)c2F)CC1` [Example 340, N-((2R,3S)-1-glycoloyl-2-(((cis-4-(2,3,6-trifluorophenyl)cyclohexyl)oxy)methyl)piperidin-3-yl)methanesulfonamide] displayed a concentration for a half-maximal effect (EC50) of 2.5 nM. The maximal response (Emax) in test [2] (FLIPR TETRA, Fluo-4AM, read-out: Emax (%)) is 109%. For the same compound, the “locomotor activity (counts) (mean ± S.E.M., n = 8)” value in test [3] turned out to be 979.25 ± 109.96 counts.
With `COC(=O)N1CCC[C@H](NS(C)(=O)=O)[C@@H]1CO[C@H]1CC[C@@H](c2ccc(O)cc2)CC1` [Example 348, methyl (2R,3S)-2-(((cis-4-(4-hydroxyphenyl)cyclohexyl)oxy)-methyl)-3-((methylsulfonyl)amino)piperidine-1-carboxylate], the “Emax (%)” value in test [1] (setting [4]) is 92%. In test [1], the concentration for a half-maximal effect (EC50) amounted to 9.5 nM.
For the compound `CCNC(=O)N1CCC[C@H](NS(C)(=O)=O)[C@@H]1CO[C@H]1CCC[C@@H]1Oc1ccccc1` [Example 350, cis-N-ethyl-3-((methylsulfonyl)amino)-2-((((1S,2S)-2-phenoxycyclopentyl)oxy)methyl)-piperidine-1-carboxamide], the 50% effective concentration (EC50) in test [1] amounted to 1600 nM. Besides, the Emax in test [1] (setting [4]) stood at 116%.
